Counter-ions that a name gives are not always drawn.
Molecular target: not listed separately
Test: Binding assay for the sigma receptor sites is performed by utilizing [3H]N,N-di-o-tolylguanidine ([3H]DTG) and guinea pig brain membrane suspensions

IC50 [nM] | Compound
82 | CCc1cccc(NC(=N)N(C)c2cccc(CC)c2)c1
2540 | CCc1cccc(N(C)C(N)=Nc2cccc3ccccc23)c1 [APTIGANEL HYDROCHLORIDE]

Molecular target: Glutamate NMDA receptor
Test: In vitro radioligand binding assay for the N-methyl-D-aspartate glutamate receptor is performed using [3H]MK-801 and rat brain membrane suspensions

Compound | Ki [nM]
CCc1cccc(NC(=N)Nc2ccc(Cl)cc2)c1 | 738
CCc1cccc(N(C)C(=N)Nc2ccccc2Br)c1 | 265
CCc1cccc(NC(=N)Nc2cccc(Cl)c2Cl)c1 | 156
CCc1cccc(N(C)C(=N)Nc2cccc(Cl)c2)c1 | 497
CCc1cccc(NC(=N)Nc2cc(CC)cc(CC)c2)c1 | 129
CCc1cccc(NC(=N)Nc2cccc(CC)c2)c1 | 129
CCc1cccc(N(C)C(=N)Nc2cccc(Cl)c2Cl)c1 | 116
CCc1cccc(NC(=N)Nc2ccccc2Cl)c1 | 249
CCc1cccc(NC(=N)Nc2cccc(Cl)c2)c1 | 112
CCc1cccc(N(C)C(=N)Nc2ccc(Cl)cc2)c1 | 3340
CCc1cccc(N(C)C(=N)N(C)c2cc(CC)ccc2Cl)c1 | 111
CCc1cccc(NC(=N)Nc2c(Cl)cccc2Cl)c1 | 133
CCc1cccc(NC(=N)Nc2ccccc2CC)c1 | 350
CCc1cccc(N(C)C(=N)Nc2ccc(Cl)c(Cl)c2)c1 | 1280
CCc1cccc(NC(=N)Nc2ccc(Cl)cc2Cl)c1 | 140
CCc1cccc(NC(=N)Nc2cc(Cl)cc(Cl)c2)c1 | 115
CCc1cccc(NC(=N)Nc2ccccc2C(C)C)c1 | 230
CCc1cccc(NC(=N)Nc2ccc(Cl)c(Cl)c2)c1 | 204
CCc1cccc(NC(=N)Nc2ccccc2C)c1 | 768
CCc1cccc(N(C)C(=N)Nc2ccccc2C(C)C)c1 | 564
CCc1cccc(N(C)C(=N)Nc2ccccc2Cl)c1 | 386

The remaining lines, values ahead:

Ki [nM] | Compound
65 | CCc1cccc(N(C)C(=N)Nc2cc(Cl)ccc2Cl)c1
6.4 | CCc1cccc(N(C)C(=N)Nc2cccc(SC)c2)c1
27 | CCc1cccc(N(C)C(=N)N(C)c2cc(Br)ccc2Br)c1
81 | CCc1cccc(N(C)C(=N)Nc2cccc(Br)c2)c1
77 | CCc1cccc(NC(=N)Nc2cc(C)cc(CC)c2Cl)c1
51 | CCc1cccc(NC(=N)Nc2cccc(Br)c2)c1
29 | CCc1cccc(NC(=N)Nc2cc(CC)cc(CC)c2Br)c1
29 | CCc1cccc(N(C)C(N)=Nc2cccc3ccccc23)c1 [APTIGANEL HYDROCHLORIDE]
101 | CCc1cccc(N(C)C(=N)Nc2ccccc2I)c1
65 | CCc1cccc(NC(=N)N(C)c2cc(CC)ccc2Cl)c1
68 | CCc1cccc(NC(=N)Nc2cc(Cl)ccc2Cl)c1
97 | CCc1cccc(N(C)C(=N)Nc2cc(CC)cc(CC)c2F)c1
72 | CCc1cccc(N(C)C(=N)N(C)c2cc(Cl)ccc2Cl)c1
78 | CCc1cccc(N(C)C(=N)Nc2cc(C)cc(CC)c2Cl)c1
11.8 | CCc1cccc(NC(=N)Nc2cc(SC)cc(CC)c2Cl)c1
50 | CCc1cccc(NC(=N)Nc2cc(CC)cc(CC)c2F)c1

From ChEMBL document CHEMBL1130271, “Synthesis and pharmacological evaluation of N-(2,5-disubstituted phenyl)-N'-(3-substituted phenyl)-N'-methylguanidines as N-methyl-D-aspartate receptor ion-channel blockers” (J Med Chem, 1997)
